Where two headings read alike, the source gives them in different places. Numbered stars: 1 amine (or outer) side, 2 acyl side, 3 side chain; on linkers, the order of the positions; unused ones are H or OH. Square brackets hold non-standard residues; d marks the D form. Peptide text beside a SMILES is read from it. * marks the point of attachment. Sta = CC(C)C[C@H](N)[C@@H](O)CC(=O)O; pNA = O=[N+]([O-])c1ccc(N*)cc1; Suc = O=C(CCC(=O)[*:2])[*:1]; Isovaleryl = CC(C)CC(=O)*; Cbz = O=C(OCc1ccccc1)*; CK = not defined here
What was measured:
[1] = system: Nicotianalisin; experiment: Protease inhibitor study in plant interstitial fluid (IF), N-Suc-AAPL-p-NA hydrolysis; assay type: biochemical, N. benthamiana
Protocol: To further classify the protease activity in the plant IF extract, protease inhibitor studies were performed. Standard inhibitors from different classes of proteases were used. An aliquot of the plant IF was incubated with each inhibitor for 30 min at 24° C., and the free enzyme was incubated under the same conditions without the inhibitor to serve as the control. The protease activity after the inhibition was measured and compared to the control.
To further characterize the plant proteolytic activity, experiments were initiated to partially purify the plant protease. In order to purify the protease, enzyme assays were developed and utilized. Proteolytic activity was monitored by the hydrolysis of a synthetic substrate, hydrolysis of a protein substrate and/or by an in situ gel procedure. […] The absorbance of the p-nitroaniline (p-NA) produced was measured at 410 nm (Erlanger, Kokowsky, and Cohen, 1961; Nakajima et al., 1979). The activity unit was defined as the amount of the enzyme capable of producing 1 nanomole of p-NA per min under the conditions of the experiment with an absorption coefficient of […] (Erlanger, Kokowsky, and Cohen, 1961; Nakajima et al., 1979). The rate of hydrolysis of N-Succinyl-Ala-Ala-Pro-Phe-thiobenzylester SEQ ID NO: in 10% DMSO and 4,4′-dithiodipyridine was monitored at […] using an extinction coefficient of 19800 cm^−1 M^−1 (Barrett and Kirschke, 1981). General proteolytic activity was measured with 2.0% azocasein or 2.0% azoalbumin and Fluorescein Isothiocyanate Casein (FITC-casein; (Twining, 1984)). The reaction was started by addition of 10 μl of protease solution to 70 μl of reaction mixture (100 mM buffer Tris-HCl pH 7.0 containing 0.04% FTC-casein, 0.5 mM DDT, 2 mM CaCl2) and incubation for 1 hr at 37° C. The reaction was stopped by addition of 80 μl of 10% TCA and incubation for 15 min at −20° C. The mixture was centrifuged for 10 min at 10,000×g at 4° C. 10 μl of the supernatant solution was added to 150 μl Tris-HCl (0.5 M, pH 8.5), and fluorescence was measured at an excitation wavelength of 490 nm and an emission wavelength of 525 nm using a fluorescence plate reader ((Erlanger, Kokowsky, and Cohen, 1961; Nakajima et al., 1979), Molecular Devices).

[2] = system: plant protease; experiment: In vitro stability of recombinant hGH in IF with protease inhibitors (Western); assay type: biochemical, N. benthamiana; conditions: 24 hours at 24° C. followed by 120 hours at 5° C.; anti-hGH Western
Protocol: FIG. 1 depicts the in vitro stability of expressed recombinant human growth hormone protein (hereafter “hGH”) in the interstitial fluid (hereafter “IF”) following the addition of protease inhibitors. Recombinant hGH protein was expressed in N. benthamiana using a tobacco mosaic virus (hereafter “TMV”) vector expression system. IF was prepared from plant leaves at 9 days post-inoculation and incubated for 24 hours at 24° C. followed by 120 hours at 5° C. with or without the addition of protease inhibitors. Fifteen microliters of the IF extract was separated by SDS-PAGE and the gel prepared for Western analysis. The levels of hGH protein in the IF of the time zero control (lane a), in absence of inhibitor (lane b), and in the presence of protease inhibitors chymostatin (lane c) and PI-I (lane d), were detected using anti-hGH antibody.
When a plant viral vector expression system (Kumagai et al., 1995; McCormick et al., 1999) was utilized to express the secreted, mammalian recombinant protein, hGH, significant degradation of the target protein was observed. […]
Aliquots of the plant IF fraction were separated by SDS-PAGE and levels of hGH protein were detected by immunoblot analysis using anti-hGH polyclonal antibody (Sigma, St. Louis, Mo.). […]
At zero time, prior to the addition of any inhibitors, both full length and hGH cleavage products were detected (FIG. 1). […]

[3] = system: Nicotianalisin; experiment: In situ Zymogram gelatin gel assay of partially purified protease; assay type: biochemical, N. benthamiana; conditions: 2 mM PMSF for 1 hr at 24° C.; partially purified fraction
Protocol: FIG. 2 depicts the inhibition of Nicotianalisin by PMSF protease inhibitor using Zymogram gelatin gel analysis. Plant extracts containing Nicotianalisin activity were partially purified by ion-exchange chromatography at pH 5.2, and fractions with peak protease activity were treated with or without 2 mM PMSF for 1 hr at 24° C. Following treatment, aliquots were removed and inhibitory activity assessed on Zymogram gels.
The in situ protease gel assay was carried out in pre-cast 10% Zymogram gels (Invitrogen, Carlsbad, Calif.) as per manufacturer's protocols.
Following the initial observation that the plant protease activity was inhibited by both chymostatin and potato PI-I (FIG. 1), experiments were initiated to partially purify the protease from N. benthamiana leaves. Plants were grown and IF extracts were prepared as described above. The IF was filtered through a 0.8μ Sartorius GF membrane to remove most of the Ribulose-1,5-bisphosphate carboxylase/oxygenase (Rubisco) and green pigments. The diafiltered extract was separated further by SP sepharose (Pharmacia) ion exchange chromatography at pH 5.2.

[4] = system: Nicotianalisin; experiment: Hydrolysis of synthetic 4-nitroanilide peptide substrates by purified protease
Protocol: Nicotianalisin enzyme specificity. The enzyme specificity of Nicotianalisin was assessed by monitoring the cleavage efficiency of numerous chromogenic synthetic substrates. An aliquot of the purified protease was added to an assay mixture containing 0.1 M Tris-HCl, pH 7.0, 5 mM CaCl2, 0.5-2.7% dimethylformamide, and 0.3 to 2 mM synthetic substrate and allowed to proceed for 30 min at 37° C. The released p-NA moiety was measured at 410 mu as previously described.
Hydrolysis of homologous synthetic 4-nitroanilide peptides by Nicotianalisin. Enzymatic assays were conducted at 0.3 mM substrate concentration in 0.1 M Tris-HCl, pH 7.0, containing 5 mM CaCl2, and 0.5-2.7% dimethylformamide at 25° C.

[5] = system: CD34+; experiment: CD34+ proliferation assays; assay type: cell-based; conditions: proteins purified from plants
Protocol: The vectors were used to inoculate plant leaves of different sets of plants as described in the examples above. Both plant homogenates and interstitial fluid were extracted as described above. hSCF and pSCF were each purified from 27 plants to yield 0.85 mg (˜15 mg/kg) and 2.5 mg (˜45 mg/kg) of protein respectively.

[6] = IF from viral vector-infected plants incubated with inhibitor 30 min at 24° C., 0.3 mM N-Suc-AAPL-p-NA

Compound	% Inhibition [1, 6]	further results
c1cnc2c(c1)ccc1cccnc12 [1-10 Phenantrolin]	11%	–
O=c1oc(Cl)c(Cl)c2ccccc12 [3-4 DCI]	100%	–
CC(C)C[C@@H](N)[C@H](O)C(=O)N[C@H](C(=O)N[C@H](C(=O)N[C@@H](CC(=O)O)C(=O)O)C(C)C)C(C)C [Amastatin]	5%	–
CC(C)C[C@H](NC(=O)[C@@H](NC(=O)N[C@@H](Cc1ccccc1)C(=O)O)[C@@H]1CCN=C(N)N1)C(=O)N[C@H](C=O)Cc1ccccc1 [Chymostatin]	100%	inhibition of degradation of hGH protein in IF extract [2]: inhibition of further degradation of the intact hGH protein was observed
CC(C)C[C@H](NC(=O)[C@H]1O[C@@H]1C(=O)O)C(=O)NCCCCN=C(N)N [E-64]	5%	–
O=C(O)CN(CCN(CC(=O)O)CC(=O)O)CC(=O)O [EDTA]	5%	–
CC(C)C[C@H](NC(=O)N[C@H](C(=O)N[C@@H](CCC(N)=O)C(=O)N[C@@H](C)C=O)[C@@H]1CCNC(=N)N1)C(=O)O [Elastinal]	41%	–
CC(=O)N[C@@H](CC(C)C)C(=O)N[C@@H](CC(C)C)C(=O)N[C@H](C=O)CCCNC(=N)N [Leupeptin]	18%	–
O=S(=O)(F)Cc1ccccc1 [PMSF, phenylmethanesulfonyl fluoride]	100%	reduction of protease activity on Zymogram gelatin gel [3]: significant reduction of protease activity
CC(C)CC(=O)N[C@H](C(=O)N[C@H](C(=O)N[C@@H](CC(C)C)[C@@H](O)CC(=O)N[C@@H](C)C(=O)N[C@@H](CC(C)C)[C@@H](O)CC(=O)O)C(C)C)C(C)C [Pepstatin A] (Isovaleryl-VV[Sta]A[Sta]-OH)	6%	–
Cc1ccc(S(=O)(=O)N[C@@H](CCCCN)C(=O)CCl)cc1 [TLCK]	–	% Inhibition [1]: 0%
Cc1ccc(S(=O)(=O)N[C@@H](Cc2ccccc2)C(=O)CCl)cc1 [TPCK]	38%	–
Aprotinin	46%	–
N-CBZ-GGF-CK: irreversible serine protease inhibitor, active site titrant (Cbz-Gly-Gly-Phe-{CK}; reading uncertain; also: printed as N-CBZ-GGF-CK)	70%	–
N-Suc-AAPM-pNA: synthetic 4-nitroanilide peptide substrate (SMILES CSCC[C@H](NC(=O)[C@@H]1CCCN1C(=O)[C@H](C)NC(=O)[C@H](C)NC(=O)CCC(=O)O)C(=O)Nc1ccc([N+](=O)[O-])cc1)	–	preferential cleavage of synthetic peptide substrates [4]: preferentially cleaved
N-Succinyl-Alanine-Alanine-Proline-Leucine-para-nitroanilide [N-Suc-AAPL-pNA]	–	preferential cleavage of synthetic peptide substrates [4]: preferentially cleaved
N-Succinyl-Alanine-Alanine-Proline-Phenylalanine-para-nitroanilide [N-Suc-AAPF-pNA]	–	preferential cleavage of synthetic peptide substrates [4]: preferentially cleaved
hSCF: human Stem Cell growth Factor expressed in plants from GENEWARE vector	–	biological activity in CD34+ proliferation assays [5]: biologically active

— patent publication US20040106198A1, “Inhibition of peptide cleavage in plants” (LARGE SCALE BIOLOGY CORPORATION, priority 2002, published 2004)
